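Abbreviation: GI50, concentration required for 50% inhibition of growth. At the TGI there is no net growth.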
Key:
Experiment in all cases: NCI tumour cell line growth inhibition, 384-well format
786-0 renal = system: 786-0 renal
A498 renal = system: A498 renal
A549 NSCLC = system: A549 NSCLC
ACHN renal = system: ACHN renal
BT-549 breast = system: BT-549 breast
CAKI-1 renal = system: CAKI-1 renal
CCRF-CEM leukemia = system: CCRF-CEM leukemia
COLO 205 colon = system: COLO 205 colon
DU-145 prostate = system: DU-145 prostate
EKVX NSCLC = system: EKVX NSCLC
HCC-2998 colon = system: HCC-2998 colon
HCT-116 colon = system: HCT-116 colon
HCT-15 colon = system: HCT-15 colon
HL-60(TB) leukemia = system: HL-60(TB) leukemia
HOP-62 NSCLC = system: HOP-62 NSCLC
HOP-92 NSCLC = system: HOP-92 NSCLC
HS 578T breast = system: HS 578T breast
HT29 colon = system: HT29 colon
IGROV1 ovarian = system: IGROV1 ovarian
K-562 leukemia = system: K-562 leukemia
KM12 colon = system: KM12 colon
LOX IMVI melanoma = system: LOX IMVI melanoma
M14 melanoma = system: M14 melanoma
MALME-3M melanoma = system: MALME-3M melanoma
MCF7 breast = system: MCF7 breast
MDA-MB-231 breast = system: MDA-MB-231 breast
MDA-MB-435 melanoma = system: MDA-MB-435 melanoma
MDA-MB-468 breast = system: MDA-MB-468 breast
MOLT-4 leukemia = system: MOLT-4 leukemia
NCI-H226 lung = system: NCI-H226 lung
NCI-H23 lung = system: NCI-H23 lung
NCI-H322M lung = system: NCI-H322M lung
NCI-H460 NSCLC = system: NCI-H460 NSCLC
NCI-H522 lung = system: NCI-H522 lung
NCI/ADR-RES ovarian = system: NCI/ADR-RES ovarian
OVCAR-3 ovarian = system: OVCAR-3 ovarian
OVCAR-4 ovarian = system: OVCAR-4 ovarian
OVCAR-8 ovarian = system: OVCAR-8 ovarian
PC-3 prostate = system: PC-3 prostate
RPMI-8226 leukemia = system: RPMI-8226 leukemia
RXF 393 renal = system: RXF 393 renal
SF-268 CNS = system: SF-268 CNS
SF-295 CNS = system: SF-295 CNS
SF-539 CNS = system: SF-539 CNS
SK-MEL-28 melanoma = system: SK-MEL-28 melanoma
SK-MEL-5 melanoma = system: SK-MEL-5 melanoma
SK-OV-3 ovarian = system: SK-OV-3 ovarian
SN12C renal = system: SN12C renal
SNB-19 CNS = system: SNB-19 CNS
SNB-75 CNS = system: SNB-75 CNS
SR leukemia = system: SR leukemia
SW-620 colon = system: SW-620 colon
T-47D breast = system: T-47D breast
TK-10 renal = system: TK-10 renal
U251 glioblastoma = system: U251 glioblastoma
UACC-257 melanoma = system: UACC-257 melanoma
UACC-62 melanoma = system: UACC-62 melanoma
UO-31 renal = system: UO-31 renal

CC/C(=C(/c1ccc(/C=C/C(=O)O)cc1)c1ccc2[nH]ncc2c1)c1ccc(F)cc1Cl
GI50 ([…]-0 renal): 12.7 µM | TGI (786-0 renal): 25.9 µM | GI50 (A498 renal): 10.9 µM | TGI (A498 renal): 22.9 µM | GI50 (A549 NSCLC): 10.4 µM | TGI (A549 NSCLC): 22.3 µM | GI50 (ACHN renal): 13.7 µM | TGI (ACHN renal): 26.6 µM | GI50 (BT-549 breast): 14.7 µM | TGI (BT-549 breast): 27.9 µM | GI50 (CAKI-1 renal): 16.6 µM | TGI (CAKI-1 renal): 30.4 µM | GI50 (CCRF-CEM leukemia): 10.5 µM | TGI (CCRF-CEM leukemia): 22.3 µM | GI50 (COLO 205 colon): 15.1 µM | TGI (COLO 205 colon): 28.7 µM | GI50 (DU-145 prostate): 15.9 µM | TGI (DU-145 prostate): 29.4 µM | GI50 (EKVX NSCLC): 14.7 µM | TGI (EKVX NSCLC): 28.2 µM | GI50 (HCC-2998 colon): 18.3 µM | TGI (HCC-2998 colon): 32.3 µM | GI50 (HCT-116 colon): 15.3 µM | TGI (HCT-116 colon): 29.4 µM | GI50 (HCT-15 colon): 12.4 µM | TGI (HCT-15 colon): 25.2 µM | GI50 (HL-60(TB) leukemia): 6.03 µM | TGI (HL-60(TB) leukemia): 18.5 µM | GI50 (HOP-62 NSCLC): 9.36 µM | TGI (HOP-62 NSCLC): 21.4 µM | GI50 (HOP-92 NSCLC): 14.2 µM | TGI (HOP-92 NSCLC): 27.6 µM | GI50 (HS 578T breast): 15.6 µM | TGI (HS 578T breast): 29 µM | GI50 (HT29 colon): 16.7 µM | TGI (HT29 colon): 30.5 µM | GI50 (IGROV1 ovarian): 15.2 µM | TGI (IGROV1 ovarian): 29 µM | GI50 (K-562 leukemia): 14.5 µM | TGI (K-562 leukemia): 29.5 µM | GI50 (KM12 colon): 14.4 µM | TGI (KM12 colon): 27.5 µM | GI50 (LOX IMVI melanoma): 10.5 µM | TGI (LOX IMVI melanoma): 22.4 µM | GI50 (M14 melanoma): 7.57 µM | TGI (M14 melanoma): 20.5 µM | GI50 (MALME-3M melanoma): 14.8 µM | TGI (MALME-3M melanoma): 28 µM | TGI (MCF7 breast): 15.1 µM | GI50 (MDA-MB-231 breast): 15.1 µM | TGI (MDA-MB-231 breast): 28.4 µM | GI50 (MDA-MB-435 melanoma): 2.71 µM | TGI (MDA-MB-435 melanoma): 7.22 µM | GI50 (MDA-MB-468 breast): 11.5 µM | TGI (MDA-MB-468 breast): 23.8 µM | GI50 (MOLT-4 leukemia): 12.9 µM | TGI (MOLT-4 leukemia): 25.9 µM | GI50 (NCI-H226 lung): 18.1 µM | TGI (NCI-H226 lung): 32.1 µM | GI50 (NCI-H23 lung): 14.7 µM | TGI (NCI-H23 lung): 27.9 µM | GI50 (NCI-H322M lung): 14.2 µM | TGI (NCI-H322M lung): 27.4 µM | GI50 (NCI-H460 NSCLC): 16.6 µM | TGI (NCI-H460 NSCLC): 30.5 µM | GI50 (NCI-H522 lung): 14.6 µM | TGI (NCI-H522 lung): 27.8 µM | GI50 (NCI/ADR-RES ovarian): 14.1 µM | TGI (NCI/ADR-RES ovarian): 27.7 µM | GI50 (OVCAR-3 ovarian): 14.3 µM | TGI (OVCAR-3 ovarian): 27.6 µM | GI50 (OVCAR-4 ovarian): 14.2 µM | TGI (OVCAR-4 ovarian): 28 µM | GI50 (OVCAR-8 ovarian): 15.3 µM | TGI (OVCAR-8 ovarian): 28.7 µM | GI50 (PC-3 prostate): 13.7 µM | TGI (PC-3 prostate): 26.7 µM | GI50 (RPMI-8226 leukemia): 5.4 µM | TGI (RPMI-8226 leukemia): 16.9 µM | GI50 (RXF 393 renal): 8.35 µM | TGI (RXF 393 renal): 21 µM | GI50 (SF-268 CNS): 15.6 µM | TGI (SF-268 CNS): 29 µM | GI50 (SF-295 CNS): 4.65 µM | TGI (SF-295 CNS): 17 µM | GI50 (SF-539 CNS): 14.3 µM | TGI (SF-539 CNS): 27.4 µM | GI50 (SK-MEL-28 melanoma): 12.5 µM | TGI (SK-MEL-28 melanoma): 26.1 µM | GI50 (SK-MEL-5 melanoma): 12.6 µM | TGI (SK-MEL-5 melanoma): 25.2 µM | GI50 (SK-OV-3 ovarian): 18 µM | TGI (SK-OV-3 ovarian): 32.5 µM | GI50 (SN12C renal): 17.1 µM | TGI (SN12C renal): 31.6 µM | GI50 (SNB-19 CNS): 14.4 µM | TGI (SNB-19 CNS): 27.5 µM | GI50 (SNB-75 CNS): 13.7 µM | TGI (SNB-75 CNS): 26.6 µM | GI50 (SR leukemia): 3 µM | TGI (SR leukemia): 6.35 µM | GI50 (SW-620 colon): 18.1 µM | TGI (SW-620 colon): 32.2 µM | GI50 (T-47D breast): 11.9 µM | TGI (T-47D breast): 25.2 µM | GI50 (TK-10 renal): 16.3 µM | TGI (TK-10 renal): 31.2 µM | GI50 (U251 glioblastoma): 11.8 µM | TGI (U251 glioblastoma): 24.2 µM | GI50 (UACC-257 melanoma): 15.1 µM | TGI (UACC-257 melanoma): 29 µM | GI50 (UACC-62 melanoma): 13 µM | TGI (UACC-62 melanoma): 25.8 µM | GI50 (UO-31 renal): 10.1 µM | TGI (UO-31 renal): 21.8 µM
